# According to patent US7208281B2 (priority 2001, dated 2007):
# Read-outs that look alike come from different tables or passages of the source.
# How the values were obtained:
# PrPsc [1] = system: PrPsc
# PrPC [2] = target: PrPC (Bos taurus, UniProt P10279); conditions: fibronectin coupled with europium nanobeads, incubated with sample
# PrPsc [3] = system: PrPsc; remark: listed apart in the source
# PrPC [4] = target: PrPC (Homo sapiens, UniProt P04156); conditions: microtiter plate coated with fibronectin
# PrPsc [5] = conditions: cited from earlier work
# prions = conditions: cited from earlier work
# PrPC (Bos taurus, UniProt P10279), sequence (P10279 25-241 limits assumed): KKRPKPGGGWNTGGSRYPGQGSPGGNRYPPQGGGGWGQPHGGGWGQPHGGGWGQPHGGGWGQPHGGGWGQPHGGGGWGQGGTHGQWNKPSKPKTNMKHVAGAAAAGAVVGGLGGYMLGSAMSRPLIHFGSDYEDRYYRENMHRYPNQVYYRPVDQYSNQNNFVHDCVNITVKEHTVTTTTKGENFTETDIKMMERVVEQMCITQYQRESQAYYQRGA
substance,measurement,setting,value
fibronectin,adherence of pathological PrP (PrPsc),PrPsc [1],adheres
same,adherence of normal PrP (PrPc),PrPC [2],does not
same,adherence of pathological PrP (PrPsc),PrPsc [3],adheres
same,adherence of normal PrP (PrPc),PrPC [4],does not
plasminogen,binding of PrPsc,PrPsc [5],binding specifically
"poly-b-xylose-2,3-disulphonate [Pentosan]",inhibition of the production of prions,prions,inhibits the production of prions most strongly
